Values quoted from earlier work, collected in patent US20170095484A1, “METHOD OF TREATING RESISTANT NON-HODGKIN LYMPHOMA, MEDULLOBLASTOMA, AND/OR ALK+NON-SMALL CELL LUNG CANCER USING THIENOTRIAZOLODIAZEPINE COMPOUNDS” (ONCOETHIX GMBH, priority 2014, published 2017).

Tests used:
HDAC = details: isoform not stated
mTOR = mTOR (Homo sapiens, UniProt P42345)
[1] = molecular target: Bruton's tyrosine kinase (BTK) (Homo sapiens, UniProt Q06187); details: in intact cells and in cell-free systems
[2] = tested on: Lyn, Syk, PKA, casein kinase I, ERK1, ERK2 and p38 kinase

Sequence of Bruton's tyrosine kinase (BTK) (Q06187 whole entry): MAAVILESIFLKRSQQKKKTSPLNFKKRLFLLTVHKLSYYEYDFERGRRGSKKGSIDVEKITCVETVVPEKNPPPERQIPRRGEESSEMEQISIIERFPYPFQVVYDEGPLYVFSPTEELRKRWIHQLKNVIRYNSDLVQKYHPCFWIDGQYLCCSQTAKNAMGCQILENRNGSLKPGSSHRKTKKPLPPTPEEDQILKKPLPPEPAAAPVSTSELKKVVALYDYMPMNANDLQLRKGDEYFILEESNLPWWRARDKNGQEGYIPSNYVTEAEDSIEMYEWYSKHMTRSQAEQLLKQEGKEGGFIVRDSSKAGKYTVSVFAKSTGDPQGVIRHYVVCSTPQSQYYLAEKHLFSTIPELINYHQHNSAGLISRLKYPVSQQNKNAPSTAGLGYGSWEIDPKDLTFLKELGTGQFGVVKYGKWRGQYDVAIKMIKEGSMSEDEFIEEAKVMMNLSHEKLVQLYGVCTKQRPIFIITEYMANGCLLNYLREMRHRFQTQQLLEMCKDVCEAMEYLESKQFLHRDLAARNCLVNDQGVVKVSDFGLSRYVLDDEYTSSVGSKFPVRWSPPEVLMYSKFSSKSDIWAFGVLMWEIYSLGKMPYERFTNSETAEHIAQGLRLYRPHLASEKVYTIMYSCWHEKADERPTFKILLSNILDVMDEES

## Trichostatin A
HDAC
  IC50: ~1.8 nM

## CO[C@H]1C[C@@H]2CC[C@@H](C)[C@@](O)(O2)C(=O)C(=O)N2CCCC[C@H]2C(=O)O[C@H]([C@H](C)C[C@@H]2CC[C@@H](OCCO)[C@H](OC)C2)CC(=O)[C@H](C)/C=C(\C)[C@@H](O)[C@@H](OC)C(=O)[C@H](C)C[C@H](C)/C=C/C=C/C=C/1C [Everolimus]
mTOR
  IC50: 1.6 to 2.4 nM

## CC1=C(O)C(=O)[C@@H]2O[C@@H]2C1=O [Terreic acid]
PKC
  effect on the activity of PKC: without affecting the activity of PKC
[1]
  effect on the catalytic activity of BTK: Inhibits the catalytic activity of BTK
[2]
  effect on the activities of Lyn, Syk, PKA, casein kinase I, ERK1, ERK2 and p38 kinase: little or no effect
